Measured values reported in paper PMC6289105 (Organic & Biomolecular Chemistry, 2018).

Tested on: Helix pomatia agglutinin (HPA)
Experiment: Bio-layer interferometry
Type: binding
Conditions: SA and SSA sensors; monovalent reference and negative control

## CC(=O)N[C@H]1C(O)O[C@H](CO)[C@H](O)[C@@H]1O (stereo partly shown) [GalNAc]
  BLI binding signal: no detectable signal
